This note sets out measurements from ChEMBL document CHEMBL3044902, “Effect of Optically Active Ethyl 2-Phthalimidooxypropionate on the Growth of Cress, Lepidium sativum” (1999).

What all share (type): functional
The subject of experiment [1] is Lepidium sativum. The experiment in a line: Inhibition of root growth of Lepidium sativum at 1 ppm relative to untreated control. To be noted: read-out: GI.
In experiment [2] the test system is Lepidium sativum. The experiment in a line: Inhibition of germination of Lepidium sativum at 100 ppm relative to untreated control.
Experiment [3] deals with Lepidium sativum. Description: Inhibition of root growth of Lepidium sativum at 100 ppm relative to untreated control. Conditions: read-out: GI.
In experiment [4] the test system is Lepidium sativum. Description: Inhibition of germination of Lepidium sativum at 10 ppm relative to untreated control.
Experiment [5] relates to Lepidium sativum. Description: Inhibition of root growth of Lepidium sativum at 1.1 microM relative to untreated control. To be noted: read-out: GI.
Experiment [6] has as its system Lepidium sativum. Description: Inhibition of root growth of Lepidium sativum at 3.8 microM relative to untreated control. Conditions: read-out: GI.
Experiment [7] has as its system Lepidium sativum. The experiment in a line: Inhibition of root growth of Lepidium sativum at 0.38 microM relative to untreated control. To be noted: read-out: GI.

With `CC(C)OC(=O)C(C)ON1C(=O)c2ccccc2C1=O` (configuration not stated), the inhibition of growth at 1 ppm in the experiment on Lepidium sativum [1] stood at 51%.
By inhibition is commonly meant the relative decrease from the control value, in per cent. Lower therefore signals a weak effect. Turning to `CCCC(C)ON1C(=O)c2ccccc2C1=O` (configuration not stated), in the experiment with Lepidium sativum [1], the inhibition of growth at 1 ppm turned out to be 0%. The same compound gave an inhibition at 100 ppm in the experiment on Lepidium sativum [2] of 0%. Also, in the experiment with Lepidium sativum [3], the inhibition of growth at 100 ppm came to 56%.
For `CCOC(=O)C(C)(C)ON1C(=O)c2ccccc2C1=O`, the inhibition of growth at 1 ppm in the experiment on Lepidium sativum [1] came to 0%. The same compound came in with an inhibition at 100 ppm with Lepidium sativum [2] of 60%. In the experiment on Lepidium sativum [4], this compound yielded an inhibition at 10 ppm of 0%. In addition, in the experiment on Lepidium sativum [3], the inhibition of growth at 100 ppm stood at 95%.
Take `CCOC(=O)C(Cc1ccccc1)ON1C(=O)c2ccccc2C1=O` (configuration not stated): in the experiment on Lepidium sativum [1], the inhibition of growth at 1 ppm was found to be 0%. The compound further had an inhibition at 100 ppm in the experiment on Lepidium sativum [2] of 0%. The inhibition of growth at 100 ppm in the experiment on Lepidium sativum [3] worked out at 70%.
`CCOC(=O)C(C)CN1C(=O)c2ccccc2C1=O` (configuration not stated): the inhibition of growth at 1 ppm in the experiment with Lepidium sativum [1] turned out to be 0%. In addition, the inhibition at 100 ppm in the experiment on Lepidium sativum [2] worked out at 0%. Besides, in the experiment on Lepidium sativum [3], the inhibition of growth at 100 ppm worked out at 41%.
As to `CCCOC(=O)C(C)ON1C(=O)c2ccccc2C1=O` (configuration not stated), the inhibition of growth at 1 ppm in the experiment on Lepidium sativum [1] stood at 64%.
As to `CCOC(=O)C(CC)ON1C(=O)c2ccccc2C1=O` (configuration not stated), the inhibition of growth at 1 ppm in the experiment with Lepidium sativum [1] was determined as 0%. Also, 100 ppm produced 80% inhibition with Lepidium sativum [2]. The inhibition at 10 ppm in the experiment on Lepidium sativum [4] came out at 0%. In the experiment on Lepidium sativum [3], the inhibition of growth at 100 ppm turned out to be 94%.
For the compound `CCOC(=O)CON1C(=O)c2ccccc2C1=O`, the inhibition of growth at 1 ppm with Lepidium sativum [1] came out at 0%. 100 ppm produced 100% inhibition in the experiment with Lepidium sativum [2]. Besides, in the experiment on Lepidium sativum [4], the inhibition at 10 ppm is 0%. The inhibition of growth at 100 ppm in the experiment on Lepidium sativum [3] worked out at 100%.
Take `CCOC(=O)C(C)ON1C(=O)c2ccccc2C1=O` (configuration not stated): the inhibition of growth at 1 ppm in the experiment with Lepidium sativum [1] came out at 68%. The compound also gave an inhibition at 100 ppm in the experiment on Lepidium sativum [2] of 100%. The compound further showed an inhibition at 10 ppm in the experiment with Lepidium sativum [4] of 0%. Further, the inhibition of growth at 100 ppm with Lepidium sativum [3] amounted to 100%.
Regarding `CCOC(=O)[C@H](C)ON1C(=O)c2ccccc2C1=O`, the inhibition of growth at 1.1 µM in the experiment with Lepidium sativum [5] came out at 49%. The inhibition of growth at 3.8 µM in the experiment on Lepidium sativum [6] was 72%. Further, in the experiment with Lepidium sativum [7], the inhibition of growth at 0.38 µM was 35%.
Consider `CCC(C)OC(=O)C(C)ON1C(=O)c2ccccc2C1=O` (configuration not stated), for which the inhibition of growth at 1 ppm in the experiment on Lepidium sativum [1] came to 42%.
Still for that read-out and setting: the value for `CC(ON1C(=O)c2ccccc2C1=O)C(=O)OC(C)(C)C` (configuration not stated) was 1%.
On the same count and under the same terms, the value for `CCCCOC(=O)C(C)ON1C(=O)c2ccccc2C1=O` (configuration not stated) was 59%.
On to `CCOC(=O)[C@@H](C)ON1C(=O)c2ccccc2C1=O`, for which the inhibition of growth at 1.1 µM with Lepidium sativum [5] was 5%. The inhibition of growth at 3.8 µM in the experiment on Lepidium sativum [6] was 14%. For the same compound, in the experiment on Lepidium sativum [7], the inhibition of growth at 0.38 µM came out at 0%.
For the compound `CCOC(=O)C(ON1C(=O)c2ccccc2C1=O)c1ccccc1` (configuration not stated), the inhibition of growth at 1 ppm in the experiment with Lepidium sativum [1] is 0%. The same compound registered an inhibition at 100 ppm in the experiment with Lepidium sativum [2] of 0%. The inhibition of growth at 100 ppm with Lepidium sativum [3] is 60%.
For `COC(=O)C(C)ON1C(=O)c2ccccc2C1=O` (configuration not stated), the inhibition of growth at 1 ppm in the experiment on Lepidium sativum [1] was determined as 64%.
For `CCCCCCC(ON1C(=O)c2ccccc2C1=O)C(=O)OCC` (configuration not stated), in the experiment on Lepidium sativum [1], the inhibition of growth at 1 ppm amounted to 0%. Besides, the inhibition at 100 ppm with Lepidium sativum [2] stood at 0%. Moreover, the inhibition of growth at 100 ppm with Lepidium sativum [3] is 72%.
Consider `CCCCCOC(=O)C(C)ON1C(=O)c2ccccc2C1=O` (configuration not stated), for which the inhibition of growth at 1 ppm with Lepidium sativum [1] came to 64%.
In the case of `CCOC(=O)C(C)ON1C(=O)c2ccccc2C1=O` (racemic), the inhibition of growth at 1.1 µM with Lepidium sativum [5] was 33%. For the same compound, the inhibition of growth at 3.8 µM in the experiment with Lepidium sativum [6] turned out to be 68%. In the experiment with Lepidium sativum [7], the inhibition of growth at 0.38 µM worked out at 14%.
